Assay: experimentation on patients: sublingual versus traditional oral administration of FANS
Type: in vivo
Settings: sublingual administration compared with oral formulation of the same agent
Source text: In the performed experimentation, the used sublingual preparations consisted of tablets which can be separated in two parts.

Row | SMILES | therapeutic dose necessary for obtaining the desired anti-inflammatory effect
1 | O=C(O)Cc1ccccc1Nc1c(Cl)cccc1Cl [diclofenac] | reduction of the therapeutic dosage
2 | CC(C)Cc1ccc(C(C)C(=O)O)cc1 (centres unmarked) [ibuprofen] | reduction of the therapeutic dosage
3 | CC(C(=O)O)c1cccc(C(=O)c2ccccc2)c1 (centres unmarked) [ketoprofen] | reduction of the therapeutic dosage
4 | CS(=O)(=O)Nc1ccc([N+](=O)[O-])cc1Oc1ccccc1 [nimesulid, nimesulide] | reduction of the therapeutic dosage
5 | CC(=O)Nc1ccc(O)cc1 [paracetamol] | reduction of the therapeutic dosage

— patent US20060141027A1, “Sublingual administration of non-steroidal anti-inflammatory pharmacological substances” (priority 2003, published 2006)
